Values joined by “and” are separate entries in the source; they are usually repeats but may differ in a detail not shown here. Identical values can stand only once. Inconclusive results are not listed.
System: BDF1 mice, colon carcinoma 38 sc, T/C %
Test: NCI In Vivo Anticancer Drug Screen. Data for tumor model Colon Carcinoma 38 (subcutaneous) in B6D2F1 (BDF1) mice
Method: The antitumor activity of compounds was measured in mice bearing transplantable tumors. Survival or tumor size were measured and the results are expressed as the measurement made in the treated group (T) divided by the measurement made in the vehicle treated control group (C). The tumor model used in this assay is Colon Carcinoma 38 (subcutaneous) in B6D2F1 (BDF1) mice

[1] = endpoint: median tumor weight (est.), dose: 100.0 mg/kg/injection, schedule: Q07DX002 (ip), vehicle: saline, higher = larger tumour
[2] = endpoint: median tumor weight (est.), dose: 200.0 mg/kg/injection, schedule: Q07DX002 (ip), vehicle: saline, higher = larger tumour
[3] = endpoint: median tumor weight (est.), dose: 400.0 mg/kg/injection, schedule: Q07DX002 (ip), vehicle: saline, higher = larger tumour
[4] = endpoint: median tumor weight (est.), dose: 12.5 mg/kg/injection, schedule: Q07DX003 (ip), vehicle: Klucel (hydroxypropylcellulose) (HPC), higher = larger tumour
[5] = endpoint: median tumor weight (est.), dose: 25.0 mg/kg/injection, schedule: Q07DX003 (ip), vehicle: Klucel (hydroxypropylcellulose) (HPC), higher = larger tumour
[6] = endpoint: median tumor weight (est.), dose: 50.0 mg/kg/injection, schedule: Q07DX003 (ip), vehicle: Klucel (hydroxypropylcellulose) (HPC), higher = larger tumour
[7] = endpoint: median tumor weight (est.), dose: 25.0 mg/kg/injection, schedule: Q07DX002 (ip), vehicle: Klucel (hydroxypropylcellulose) (HPC), higher = larger tumour
[8] = endpoint: median tumor weight (est.), dose: 100.0 mg/kg/injection, schedule: Q07DX002 (ip), vehicle: Klucel (hydroxypropylcellulose) (HPC), higher = larger tumour
[9] = endpoint: median tumor weight (est.), dose: 200.0 mg/kg/injection, schedule: Q07DX002 (ip), vehicle: Klucel (hydroxypropylcellulose) (HPC), higher = larger tumour
[10] = endpoint: median tumor weight (est.), dose: 100.0 mg/kg/injection, schedule: Q07DX003 (ip), vehicle: Klucel (hydroxypropylcellulose) (HPC), higher = larger tumour

Cc1c2cc(Cl)c3ccccc3c2c[n+]2ccccc12
T/C (endpoint: median tumor weight (est.), dose: 12.5 mg/kg/injection, schedule: Q07DX002 (ip), vehicle: saline with Tween-80, higher = larger tumour): 94 % of control and 102 % of control
T/C (endpoint: median tumor weight (est.), dose: 25.0 mg/kg/injection, schedule: Q07DX002 (ip), vehicle: saline with Tween-80, higher = larger tumour): 116 % of control
T/C (endpoint: median tumor weight (est.), dose: 50.0 mg/kg/injection, schedule: Q07DX002 (ip), vehicle: saline with Tween-80, higher = larger tumour): 108 % of control and 111 % of control
T/C (endpoint: median tumor weight (est.), dose: 100.0 mg/kg/injection, schedule: Q07DX002 (ip), vehicle: saline with Tween-80, higher = larger tumour): 88 % of control and 98 % of control
T/C (endpoint: median tumor weight (est.), dose: 200.0 mg/kg/injection, schedule: Q07DX002 (ip), vehicle: saline with Tween-80, higher = larger tumour): 99 % of control
T/C (endpoint: median tumor weight (est.), dose: 400.0 mg/kg/injection, schedule: Q07DX002 (ip), vehicle: saline with Tween-80, higher = larger tumour): 120 % of control

CCCCCn1c(C)cc(/C=C\c2ccc3cc(C)ccc3[n+]2C)c1C
T/C (endpoint: median tumor weight (est.), dose: 0.62 mg/kg/injection, schedule: Q07DX002 (ip), vehicle: Klucel (hydroxypropylcellulose) (HPC), higher = larger tumour): 85 % of control and 86 % of control
T/C (endpoint: median tumor weight (est.), dose: 1.25 mg/kg/injection, schedule: Q07DX002 (ip), vehicle: Klucel (hydroxypropylcellulose) (HPC), higher = larger tumour): 104 % of control
T/C (endpoint: median tumor weight (est.), dose: 37.5 micrograms/kg/injection, schedule: Q07DX002 (ip), vehicle: Klucel (hydroxypropylcellulose) (HPC), higher = larger tumour): 84 % of control
T/C (endpoint: median tumor weight (est.), dose: 75.0 micrograms/kg/injection, schedule: Q07DX002 (ip), vehicle: Klucel (hydroxypropylcellulose) (HPC), higher = larger tumour): 186 % of control
T/C (endpoint: median tumor weight (est.), dose: 150.0 micrograms/kg/injection, schedule: Q07DX002 (ip), vehicle: Klucel (hydroxypropylcellulose) (HPC), higher = larger tumour): 162 % of control
T/C (endpoint: median tumor weight (est.), dose: 600.0 micrograms/kg/injection, schedule: Q07DX002 (ip), vehicle: Klucel (hydroxypropylcellulose) (HPC), higher = larger tumour): 188 % of control

CC(C)C(N)C(=O)Nc1nncs1 (stereo not drawn)
T/C [1]: 108 % of control and 98 % of control
T/C [2]: 68 % of control and 88 % of control
T/C [3]: 45 % of control and 48 % of control

OCCCN1CCCCC1CO (stereo not drawn)
T/C (endpoint: median tumor weight (est.), dose: 25.0 mg/kg/injection, schedule: Q07DX002 (ip), vehicle: saline, higher = larger tumour): 91 % of control
T/C (endpoint: median tumor weight (est.), dose: 50.0 mg/kg/injection, schedule: Q07DX002 (ip), vehicle: saline, higher = larger tumour): 110 % of control
T/C [1]: 108 % of control
T/C [2]: 99 % of control
T/C [3]: 98 % of control

N#CC(C#N)=C/C=C/c1cccc([N+](=O)[O-])c1
T/C (endpoint: median tumor weight (est.), dose: 6.25 mg/kg/injection, schedule: Q07DX003 (ip), vehicle: Klucel (hydroxypropylcellulose) (HPC), higher = larger tumour): 79 % of control
T/C [4]: 77 % of control
T/C [5]: 76 % of control
T/C [6]: 60 % of control

Cc1cc2c(cc1C)C(=O)c1c(O)c3c(c(O)c1C2=O)C[C@@](O)(C(=O)CO)C[C@@H]3OC1CC(N)C(O)C(C)O1 (stereo partly drawn)
T/C (endpoint: median tumor weight (est.), dose: 4.75 mg/kg/injection, schedule: Q07DX002 (ip), vehicle: distilled water + Tween-80, higher = larger tumour): 51 % of control
T/C (endpoint: median tumor weight (est.), dose: 6.33 mg/kg/injection, schedule: Q07DX002 (ip), vehicle: distilled water + Tween-80, higher = larger tumour): 65 % of control
T/C (endpoint: median tumor weight (est.), dose: 8.44 mg/kg/injection, schedule: Q07DX002 (ip), vehicle: distilled water + Tween-80, higher = larger tumour): 28 % of control
T/C (endpoint: median tumor weight (est.), dose: 11.25 mg/kg/injection, schedule: Q07DX002 (ip), vehicle: distilled water + Tween-80, higher = larger tumour): 23 % of control
T/C (endpoint: median tumor weight (est.), dose: 15.0 mg/kg/injection, schedule: Q07DX002 (ip), vehicle: distilled water + Tween-80, higher = larger tumour): 17 % of control

C=C[Si]12OCCN(CCO1)CCO2
T/C [7]: 73 % of control and 90 % of control
T/C [8]: 29 % of control
T/C [9]: 93 % of control and 97 % of control

CC12CC(C(=O)O)C3(O)CC(C)(C1)CC(C)(C2)C3 (stereo not drawn) (tested in a mixture with another compound)
T/C [4]: 70 % of control
T/C [5]: 94 % of control
T/C [6]: 93 % of control
T/C [10]: 121 % of control
T/C (endpoint: median tumor weight (est.), dose: 200.0 mg/kg/injection, schedule: Q07DX003 (ip), vehicle: Klucel (hydroxypropylcellulose) (HPC), higher = larger tumour): 84 % of control

NC(C/[N+]([O-])=N/O)C(=O)O (stereo not drawn)
T/C (endpoint: median survival time, dose: 52.7 mg/kg/injection, schedule: Q04DX005 (ip), vehicle: alkali diluted with saline, higher = longer survival): 109 % of control
T/C (endpoint: median survival time, dose: 79.0 mg/kg/injection, schedule: Q04DX005 (ip), vehicle: alkali diluted with saline, higher = longer survival): 86 % of control and 88 % of control
T/C (endpoint: median survival time, dose: 119.0 mg/kg/injection, schedule: Q04DX005 (ip), vehicle: alkali diluted with saline, higher = longer survival): 109 % of control and 116 % of control
T/C (endpoint: median survival time, dose: 178.0 mg/kg/injection, schedule: Q04DX005 (ip), vehicle: alkali diluted with saline, higher = longer survival): 100 % of control and 102 % of control
T/C (endpoint: median survival time, dose: 267.0 mg/kg/injection, schedule: Q04DX005 (ip), vehicle: alkali diluted with saline, higher = longer survival): 93 % of control and 94 % of control
T/C (endpoint: median survival time, dose: 400.0 mg/kg/injection, schedule: Q04DX005 (ip), vehicle: alkali diluted with saline, higher = longer survival): 95 % of control
T/C (endpoint: median survival time, dose: 600.0 mg/kg/injection, schedule: Q04DX005 (ip), vehicle: alkali diluted with saline, higher = longer survival): 79 % of control
T/C (endpoint: median tumor weight (est.), dose: 32.0 mg/kg/injection, schedule: Q07DX003 (ip), vehicle: saline, higher = larger tumour): 108 % of control
T/C (endpoint: median tumor weight (est.), dose: 64.0 mg/kg/injection, schedule: Q07DX003 (ip), vehicle: saline, higher = larger tumour): 70 % of control
T/C (endpoint: median tumor weight (est.), dose: 128.0 mg/kg/injection, schedule: Q07DX003 (ip), vehicle: saline, higher = larger tumour): 92 % of control
T/C (endpoint: median tumor weight (est.), dose: 256.0 mg/kg/injection, schedule: Q07DX003 (ip), vehicle: saline, higher = larger tumour): 100 % of control
T/C (endpoint: median tumor weight (est.), dose: 512.0 mg/kg/injection, schedule: Q07DX003 (ip), vehicle: saline, higher = larger tumour): 56 % of control
T/C (endpoint: median tumor weight (est.), dose: 1024.0 mg/kg/injection, schedule: Q07DX003 (ip), vehicle: saline, higher = larger tumour): 72 % of control

ClCCCN1CCN(CCCCl)CC1
T/C (endpoint: median tumor weight (est.), dose: 12.5 mg/kg/injection, schedule: Q07DX002 (ip), vehicle: distilled water + alcohol, higher = larger tumour): 94 % of control
T/C (endpoint: median tumor weight (est.), dose: 25.0 mg/kg/injection, schedule: Q07DX002 (ip), vehicle: distilled water + alcohol, higher = larger tumour): 154 % of control
T/C (endpoint: median tumor weight (est.), dose: 50.0 mg/kg/injection, schedule: Q07DX002 (ip), vehicle: distilled water + alcohol, higher = larger tumour): 153 % of control and 207 % of control
T/C (endpoint: median tumor weight (est.), dose: 100.0 mg/kg/injection, schedule: Q07DX002 (ip), vehicle: distilled water + alcohol, higher = larger tumour): 39 % of control and 50 % of control
T/C (endpoint: median tumor weight (est.), dose: 200.0 mg/kg/injection, schedule: Q07DX002 (ip), vehicle: distilled water + alcohol, higher = larger tumour): 63 % of control

Cc1c2ccncc2c(C)c2c1[nH]c1ccccc12
T/C (endpoint: median tumor weight (est.), dose: 10.0 mg/kg/injection, schedule: Q07DX002 (ip), vehicle: distilled water + Tween-80, higher = larger tumour): 63 % of control
T/C (endpoint: median tumor weight (est.), dose: 12.5 mg/kg/injection, schedule: Q07DX002 (ip), vehicle: Klucel (hydroxypropylcellulose) (HPC), higher = larger tumour): 54 % of control and 75 % of control
T/C (endpoint: median tumor weight (est.), dose: 12.5 mg/kg/injection, schedule: Q07DX003 (ip), vehicle: saline with Tween-80, higher = larger tumour): 42 % of control
T/C (endpoint: median tumor weight (est.), dose: 12.5 mg/kg/injection, schedule: Q07DX003 (ip), vehicle: saline, higher = larger tumour): 78 % of control
T/C (endpoint: median tumor weight (est.), dose: 20.0 mg/kg/injection, schedule: Q07DX002 (ip), vehicle: distilled water + Tween-80, higher = larger tumour): 83 % of control and 103 % of control
T/C (endpoint: median tumor weight (est.), dose: 20.0 mg/kg/injection, schedule: Q07DX002 (ip), vehicle: water, higher = larger tumour): 61 % of control
T/C (endpoint: median tumor weight (est.), dose: 25.0 mg/kg/injection, schedule: Q07DX003 (ip), vehicle: saline with Tween-80, higher = larger tumour): 38 % of control
T/C (endpoint: median tumor weight (est.), dose: 25.0 mg/kg/injection, schedule: Q07DX003 (ip), vehicle: saline, higher = larger tumour): 69 % of control
T/C (endpoint: median tumor weight (est.), dose: 40.0 mg/kg/injection, schedule: Q07DX002 (ip), vehicle: water, higher = larger tumour): 9 % of control
T/C [6]: 45 % of control and 55 % of control
T/C (endpoint: median tumor weight (est.), dose: 50.0 mg/kg/injection, schedule: Q07DX003 (ip), vehicle: saline with Tween-80, higher = larger tumour): 28 % of control
T/C (endpoint: median tumor weight (est.), dose: 50.0 mg/kg/injection, schedule: Q07DX003 (ip), vehicle: saline, higher = larger tumour): 67 % of control
T/C (endpoint: median tumor weight (est.), dose: 80.0 mg/kg/injection, schedule: Q07DX002 (ip), vehicle: distilled water + Tween-80, higher = larger tumour): 7 % of control
T/C [8]: 12 % of control and 25 % of control
T/C [10]: 12 % of control and 20 % of control
T/C (endpoint: median tumor weight (est.), dose: 100.0 mg/kg/injection, schedule: Q07DX003 (ip), vehicle: saline with Tween-80, higher = larger tumour): 38 % of control
T/C (endpoint: median tumor weight (est.), dose: 100.0 mg/kg/injection, schedule: Q07DX003 (ip), vehicle: saline, higher = larger tumour): 33 % of control
T/C (endpoint: median tumor weight (est.), dose: 200.0 mg/kg/injection, schedule: Q07DX003 (ip), vehicle: saline with Tween-80, higher = larger tumour): 1 % of control
T/C (endpoint: median tumor weight (est.), dose: 200.0 mg/kg/injection, schedule: Q07DX003 (ip), vehicle: saline, higher = larger tumour): 2 % of control

O=C([CH-]C(=O)C(F)(F)F)c1ccccc1.O=C([CH-]C(=O)C(F)(F)F)c1ccccc1.O=C([CH-]C(=O)C(F)(F)F)c1ccccc1.O=C([CH-]C(=O)C(F)(F)F)c1ccccc1.[Eu+3].c1ccncc1
T/C [7]: 91 % of control
T/C (endpoint: median tumor weight (est.), dose: 50.0 mg/kg/injection, schedule: Q07DX002 (ip), vehicle: Klucel (hydroxypropylcellulose) (HPC), higher = larger tumour): 88 % of control
T/C [8]: 76 % of control and 82 % of control
T/C [9]: 79 % of control and 88 % of control
